Reference: patent US12180207B2 (ARRAY BIOPHARMA INC., priority 2018, dated 2024)

Tests used:
[1] = biological target: phosphorylated FGFR3 (SEQ ID NO: 5, amino acids 449 to 759) (Homo sapiens (Human), UniProt P22607); assay: FGFR enzyme binding assay (HTRF tracer displacement), FGFR3; details: 5 nM phosphorylated FGFR3, average of multiple determinations if made
Summary of the method: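 Compounds were tested for displacement of a tracer from human FGFR kinase in a time-resolved FRET binding format. After 60 minutes at 22° C, signal was read at two wavelengths and converted to percent of control, normalised between untreated wells and 1 μM reference inhibitor.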

[2] = biological target: recombinant human FGFR1 catalytic domain (amino acids 308-731) (Homo sapiens (Human), UniProt P11362); assay: FGFR1 enzyme activity assay (LanthaScreen TR-FRET); format: biochemical; details: 20 min incubation at 22° C., average of multiple determinations if made, read-out: FGFR1 Enz FRET IC50
Summary of the method: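 His-tagged FGFR1 kinase domain with 100 nM Alexa Fluor 647-poly-GT peptide and ATP in pH 7.5 HEPES/MgCl2 buffer with 2% DMSO, 20 min at 22 °C. Quenched with EDTA plus 2 nM Eu-PY20 antibody and read after 60 min. IC50 comes from a 4-parameter fit of percent of control.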

[3] = biological target: FGFR3 (SEQ ID NO: 5, amino acids 449-759) (Homo sapiens (Human), UniProt P22607); assay: LC/MS FGFR3 kobs assay (covalent protein modification); format: binding; details: 500 nM FGFR3, 3 μM compound
Summary of the method: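 The observed rate constant kobs comes from an exponential decay fit of percent unmodified kinase over time. Covalent modification was quantified by Q-TOF LC/MS of formic acid-quenched samples, normalized against DMSO controls.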

[4] = biological target: HEK-293 cells transfected with dox-inducible human wild type FGFR1 (Homo sapiens (Human), UniProt P11362); assay: FGFR1 pERK cell assay; format: cell-based; details: HEK-293 dox-inducible FGFR1, 1 hour compound, 100 ng/ml FGF-acidic; maximum concentration 5 μM
Summary of the method: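 In HEK-293 cells with dox-induced human wild-type FGFR1, compounds (1:3 dilutions, top 5 μM final) were applied 1 h at 37°C before 5 min stimulation with 100 ng/ml FGF-acidic. Phospho-ERK1/2 measured by MSD sandwich immunoassay; IC50 from 4-parameter fit of POC versus vehicle and control compound.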

[5] = biological target: HEK-293 cells transfected with dox-inducible human wild type FGFR3 (Homo sapiens (Human), UniProt P22607); assay: FGFR3 pERK cell assay; format: cell-based; details: HEK-293 dox-inducible FGFR3, 1 hour compound, 100 ng/ml FGF-acidic; maximum concentration 5 μM
Summary of the method: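 Doxycycline-induced cells preincubated 1 h at 37 °C with compound (1:3 dilutions, top 5 μM final), then stimulated 5 min with 100 ng/ml FGF-acidic. Lysate phospho-ERK1/2 measured by MSD sandwich assay; IC50 at 50 POC from 4-parameter fit, normalised to no-compound and control-compound wells.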

Chain of HEK-293 cells transfected with dox-inducible human wild type FGFR3 (P22607 23-806): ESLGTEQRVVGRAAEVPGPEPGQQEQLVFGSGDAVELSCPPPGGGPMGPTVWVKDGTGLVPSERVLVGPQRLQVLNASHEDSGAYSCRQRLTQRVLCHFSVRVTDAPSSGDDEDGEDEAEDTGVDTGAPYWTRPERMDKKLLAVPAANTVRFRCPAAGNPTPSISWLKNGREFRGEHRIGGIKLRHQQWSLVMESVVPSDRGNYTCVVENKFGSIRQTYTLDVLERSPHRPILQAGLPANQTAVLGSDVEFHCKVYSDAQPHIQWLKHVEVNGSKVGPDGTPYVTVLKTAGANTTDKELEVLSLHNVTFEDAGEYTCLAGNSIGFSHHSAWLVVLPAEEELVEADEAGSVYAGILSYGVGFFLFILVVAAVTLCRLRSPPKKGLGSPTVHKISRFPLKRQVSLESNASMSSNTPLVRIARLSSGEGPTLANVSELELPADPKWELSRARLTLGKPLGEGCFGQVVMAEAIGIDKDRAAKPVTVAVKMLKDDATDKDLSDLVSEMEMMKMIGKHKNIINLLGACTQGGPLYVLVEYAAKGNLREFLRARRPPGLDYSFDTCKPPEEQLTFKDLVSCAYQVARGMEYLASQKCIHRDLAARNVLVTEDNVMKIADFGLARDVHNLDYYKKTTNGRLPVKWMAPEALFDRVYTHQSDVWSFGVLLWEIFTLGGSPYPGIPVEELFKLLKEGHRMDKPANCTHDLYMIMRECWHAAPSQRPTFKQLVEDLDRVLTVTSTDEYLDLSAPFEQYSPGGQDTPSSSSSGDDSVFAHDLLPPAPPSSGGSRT
Chain of recombinant human FGFR1 catalytic domain (amino acids 308-731) (P11362 other isoform, or with tags, fused parts or gaps): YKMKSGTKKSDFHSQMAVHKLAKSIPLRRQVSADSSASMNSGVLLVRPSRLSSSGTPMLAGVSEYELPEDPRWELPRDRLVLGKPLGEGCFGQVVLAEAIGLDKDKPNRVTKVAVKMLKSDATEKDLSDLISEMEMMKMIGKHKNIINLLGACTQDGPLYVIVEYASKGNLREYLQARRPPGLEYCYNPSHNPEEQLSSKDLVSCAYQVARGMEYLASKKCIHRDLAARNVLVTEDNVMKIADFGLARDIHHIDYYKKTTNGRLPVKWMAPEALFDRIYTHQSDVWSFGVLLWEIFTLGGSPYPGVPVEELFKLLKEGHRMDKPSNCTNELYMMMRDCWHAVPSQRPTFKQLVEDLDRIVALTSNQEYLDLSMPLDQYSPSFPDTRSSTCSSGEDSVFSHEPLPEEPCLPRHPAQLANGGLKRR
Chain of HEK-293 cells transfected with dox-inducible human wild type FGFR1 (P11362 22-822): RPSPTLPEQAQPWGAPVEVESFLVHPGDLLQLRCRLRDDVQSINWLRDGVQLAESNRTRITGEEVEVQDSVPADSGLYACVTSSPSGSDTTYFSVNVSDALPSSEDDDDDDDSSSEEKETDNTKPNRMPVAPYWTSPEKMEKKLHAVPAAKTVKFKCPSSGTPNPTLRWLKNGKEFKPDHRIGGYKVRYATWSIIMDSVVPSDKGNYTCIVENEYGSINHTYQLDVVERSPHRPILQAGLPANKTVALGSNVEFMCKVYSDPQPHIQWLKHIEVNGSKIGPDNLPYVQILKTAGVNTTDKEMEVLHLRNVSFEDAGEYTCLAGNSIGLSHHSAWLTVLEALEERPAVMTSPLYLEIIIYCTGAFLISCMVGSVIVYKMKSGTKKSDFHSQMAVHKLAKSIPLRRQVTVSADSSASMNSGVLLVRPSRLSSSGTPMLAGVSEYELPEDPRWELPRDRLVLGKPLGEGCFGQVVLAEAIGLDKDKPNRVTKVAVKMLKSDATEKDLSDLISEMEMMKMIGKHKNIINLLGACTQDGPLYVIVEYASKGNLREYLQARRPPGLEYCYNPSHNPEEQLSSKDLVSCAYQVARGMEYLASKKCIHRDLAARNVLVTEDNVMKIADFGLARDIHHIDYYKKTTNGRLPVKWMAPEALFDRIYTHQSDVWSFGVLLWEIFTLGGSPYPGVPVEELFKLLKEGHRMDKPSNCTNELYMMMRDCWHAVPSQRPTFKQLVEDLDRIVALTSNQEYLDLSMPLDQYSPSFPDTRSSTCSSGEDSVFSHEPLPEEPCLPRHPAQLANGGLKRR
Chain of FGFR3 (SEQ ID NO: 5, amino acids 449-759) (P22607 449-759): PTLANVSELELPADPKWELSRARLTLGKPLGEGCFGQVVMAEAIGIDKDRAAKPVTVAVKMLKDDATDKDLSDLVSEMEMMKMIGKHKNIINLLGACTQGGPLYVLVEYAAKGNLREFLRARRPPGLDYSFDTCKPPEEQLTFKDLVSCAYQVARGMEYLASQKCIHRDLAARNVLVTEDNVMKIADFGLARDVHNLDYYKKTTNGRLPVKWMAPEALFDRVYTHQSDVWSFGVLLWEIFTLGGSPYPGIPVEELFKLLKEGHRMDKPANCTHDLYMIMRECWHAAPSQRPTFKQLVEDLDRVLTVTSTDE
Chain of phosphorylated FGFR3 (SEQ ID NO: 5, amino acids 449 to 759) (P22607 449-759): as above

SMILES | IC50 [1] [nM] | IC50 [2] [nM] | FGFR3 Enz kobs [3] [min⁻¹] | IC50 [4] [nM] | IC50 [5] [nM]
COc1cc(-c2cnn(C3CCN(CC4(OC)CN(C(=O)/C=C/CN(C)C)C4)CC3)c2C)cn2ncc(Cl)c12 [Example 173, (E)-1-(3-((4-(4-(3-chloro-4-methoxypyrazolo [1,5-a]pyridin-6-yl)-5-methyl-1H-pyrazol-1-yl)piperidin-1-yl)methyl)-3-methoxyazetidin-1-yl)-4-(dimethylamino)but-2-en-1-one] | 7 | 281 | 0.06559 | 1280 | 164
COc1cc(-c2cnn(C3CCN(C(=O)C4CN(C(=O)C#CCO)C4)CC3)c2)cn2ncc(C#N)c12 [Example 179, 6-(1-(1-(1-(4-hydroxybut-2-ynoyl)azetidine-3-carbonyl)piperidin-4-yl)-1H-pyrazol-4-yl)-4-methoxypyrazolo[1,5-a]pyridine-3-carbonitrile] | 1 | 15 | 0.189 | 1600 | 236
COc1cc(-c2cnn(C3CCN(C(=O)C4CN(C(=O)/C=C/CBr)C4)CC3)c2)cn2ncc(C#N)c12 [Example 180, (E)-6-(1-(1-(1-(4-bromobut-2-enoyl)azetidine-3-carbonyl)piperidin-4-yl)-1H-pyrazol-4-yl)-4-methoxypyrazolo[1,5-a]pyridine-3-carbonitrile] | 2 | 19 | 0.1329 | 130 | 45
COc1cc(-c2cnn(C3CCN(C(=O)C4CN(C(=O)/C=C/CCl)C4)CC3)c2)cn2ncc(C#N)c12 [Example 181, (E)-6-(1-(1-(1-(4-chlorobut-2-enoyl)azetidine-3-carbonyl)piperidin-4-yl)-1H-pyrazol-4-yl)-4-methoxypyrazolo[1,5-a]pyridine-3-carbonitrile] | 3 | 9 | 0.02709 | 196 | 34
COc1cc(-c2cnn(C3CCN(C(=O)C4CN(C(=O)/C=C/CN5CC[C@H](F)C5)C4)CC3)c2)cn2ncc(C#N)c12 [Example 182, (S,E)-6-(1-(1-(1-(4-(3-fluoropyrrolidin-1-yl)but-2-enoyl)azetidine-3-carbonyl)piperidin-4-yl)-1H-pyrazol-4-yl)-4-methoxypyrazolo[1,5-a]pyridine-3-carbonitrile] | 2 | 12 | 0.01781 | 3630 | 348
COc1cc(-c2cnn(C3CCN(C(=O)C4CN(C(=O)/C=C/CN5CC[C@@H](F)C5)C4)CC3)c2)cn2ncc(C#N)c12 [Example 183, (R,E)-6-(1-(1-(1-(4-(3-fluoropyrrolidin-1-yl)but-2-enoyl)azetidine-3-carbonyl)piperidin-4-yl)-1H-pyrazol-4-yl)-4-methoxypyrazolo[1,5-a]pyridine-3-carbonitrile] | 4 | 16 | 0.02414 | 4570 | 592
COc1cc(-c2cnn(C3CCN(C(=O)C4CN(C(=O)/C=C/CN5CCOCC5)C4)CC3)c2)cn2ncc(C#N)c12 [Example 184, (E)-4-methoxy-6-(1-(1-(1-(4-morpholinobut-2-enoyl)azetidine-3-carbonyl)piperidin-4-yl)-1H-pyrazol-4-yl)pyrazolo[1,5-a]pyridine-3-carbonitrile] | 6 | 15 | 0.00475 | ≥ 5000 | 2830
C=CS(=O)(=O)N1CCC(C(=O)N2CCC(n3cc(-c4cc(OC)c5c(C#N)cnn5c4)cn3)CC2)CC1 [Example 186, 4-methoxy-6-(1-(1-(1-(vinylsulfonyl)piperi-dine-4-carbonyl)piperidin-4-yl)-1H-pyrazol-4-yl)pyrazolo[1,5-a]pyridine-3-carbonitrile] | 2 | 5 | 0.08793 | 35 | 6
